# What was measured:
# [1] = Temperature programmed desorption of NHC films from Au; format: physicochemical; details: TPD, FIG. 2
# Method: Vapor deposition experiments were conducted in three separate stainless steel UHV chambers hosting an Ar ion sputtering gun and annealing facilities for sample cleaning. TPD data were collected in a UHV chamber (base pressure P=[…]) equipped with a quadrupole mass spectrometer (SPECTRA, Microvision Plus) in direct line-of-sight with the crystal, and a LEED/Auger spectrometer (SpectaLEED, Omicron). STM images were recorded in a third chamber (base pressure=[…]) equipped with a variable temperature scanning tunneling microscope (Omicron), and LEED optics. An electrochemically etched W tip was used for STM imaging typically employing bias voltages of ±0.6 V and tunneling currents of 300 pA. Image processing and filtering have been applied to the STM data using WSxM.
# [2] = Bench stability and solubility of carbene precursors; format: physicochemical
# [3] = Chemical stability tests of NHC films on Au(111) (XPS); format: physicochemical; details: pH 2, THF 68° C., water RT 1 month, water 100° C., decalin, 1% H2O2; 24 h (FIGS. 7a-7g)
# Method: All films were prepared using the hydrogen carbonate salt (carbene precursor) 3a and the solution deposition method previously described. Data for stability measurements are given in Chemical Stability Results.
# NHC films derived from iPr2bimy(H)[HCO3] (3a) were submerged in freshly prepared unbuffered solutions of varying pH (pH 2 or pH 12) in Ace Glass pressure tubes at 25° C. for 24 h. Experiments were conducted under N2 gas to minimize the possibility of pH change due to adsorption of atmospheric CO2. After this time, functionalized surfaces were rinsed in deionized water (3×2 mL) and dried in an N2 gas stream. The pH values of the solutions were adjusted using concentrated NaOH and HCl solutions in deionized water. Unbuffered solutions were employed in order to avoid potential adsorption effects of buffer ions from solution.
# NHC films derived from iPr2bimy(H)[HCO3] (3a) were placed in Ace Glass pressure tubes and 3 mL of freshly distilled tetrahydrofuran (THF) was added. The tube was purged with nitrogen gas, sealed and heated to 68° C. for 24 h. After this time, the sample was cooled to RT, rinsed in THF (2×5 mL), and dried under a nitrogen gas stream.
# NHC films derived from iPr2bimy(H)[HCO3] (3a) were placed in Ace Glass pressure tubes and 2 mL of decalin were added. The tubes were purged with nitrogen gas, sealed and heated to either 100° C. or 190° C. for 24 h. […]
# [4] = molecular target: bovine serum albumin (BSA) (Bos taurus, UniProt P02769); assay: Ferulic acid / BSA interaction on NHC-CM5 chip (SPR); format: binding; details: 100, 200, 400, 800 μM; FIG. 20
# Method: NHC-CM5 (500 KDa) chip was used for this study. Bovine Serum Albumin (BSA) was immobilized (covalently bound to the sensor surface) using amine-coupling chemistry. PBS (10 mM phosphate, 138 mM NaCl, 2.7 mM KCl, pH 7.4) was used as running buffer. […] Final immobilization level of BSA of this study was around 3500 RU. Unmodified dextran surface was used as a reference surface (FC1).
# Ferulic acid was first serially diluted into running buffer to final concentrations of 100, 200, 400, 800 μM. To test data quality and further equilibrate the surfaces, four warm-up buffer cycles were performed at a flow rate of 30 μl/min. Then, ferulic acid was injected over the reference and BSA surfaces at a flow rate of […] cycle consisted of a 2-min waiting period for monitoring of the baseline stability. Then the ferulic acid/BSA complex was allowed to associate and dissociate for 3-min and 3-min, respectively, and 20 mM NaOH (30 s) was used as the regeneration solution. The data was processed by subtracting from reference flow cell and blank injections—double referencing method.
# HSA = HSA (Homo sapiens, UniProt P02768); assay: Opioid/protein interactions on HSA-immobilized NHC-CM5 chip (SPR); format: binding; details: for Detection of opioid on HSA surface of NHC-CM5 chip: 50, 100, 200, 400 μM, FIG. 21A-D
# Method: NHC-CM5 chip was used for this study. HSA was immobilized using amine-coupling chemistry. […] Three 30s-injections of 50 mM NaOH was used to wash off non-covalently bound HSA and to further stabilize the baseline. […] Unmodified dextran surface was used as a reference surface.
# Opioids were first serially diluted into running buffer to final concentrations of 50, 100, 200, 400 μM. To test data quality and further equilibrate the surfaces, 4 warm-up buffer cycles were performed at a flow rate of 30 μl/min. Opioids samples were injected over the reference and HSA surfaces at a flow rate of 30 μl/min. Replicate injections of each drug concentration were analyzed. Each cycle consisted of a 1-min waiting period for monitoring of the baseline stability. Then the drug/HSA complex was allowed to associate and dissociate for 60 s and 30 s, respectively. […] Data obtained in the reference flow cell was subtracted from that obtained in the HSA immobilized flow cell.
# Sequence of HSA (P02768 25-609): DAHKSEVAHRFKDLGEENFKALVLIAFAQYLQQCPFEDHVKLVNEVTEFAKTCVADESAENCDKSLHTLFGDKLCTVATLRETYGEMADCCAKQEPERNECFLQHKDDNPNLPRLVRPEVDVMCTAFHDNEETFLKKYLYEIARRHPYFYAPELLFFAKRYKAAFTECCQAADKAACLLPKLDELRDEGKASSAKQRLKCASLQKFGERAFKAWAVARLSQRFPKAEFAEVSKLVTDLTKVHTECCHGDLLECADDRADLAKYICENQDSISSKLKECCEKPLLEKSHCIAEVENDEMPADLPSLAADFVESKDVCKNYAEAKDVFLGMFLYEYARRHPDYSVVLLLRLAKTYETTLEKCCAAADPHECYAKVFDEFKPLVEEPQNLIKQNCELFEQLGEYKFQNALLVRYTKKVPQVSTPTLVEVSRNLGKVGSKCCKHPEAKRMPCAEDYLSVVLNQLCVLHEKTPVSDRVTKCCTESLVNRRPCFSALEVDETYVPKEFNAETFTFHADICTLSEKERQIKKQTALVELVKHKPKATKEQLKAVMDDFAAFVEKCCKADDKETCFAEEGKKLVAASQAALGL
# Sequence of bovine serum albumin (BSA) (P02769 25-607): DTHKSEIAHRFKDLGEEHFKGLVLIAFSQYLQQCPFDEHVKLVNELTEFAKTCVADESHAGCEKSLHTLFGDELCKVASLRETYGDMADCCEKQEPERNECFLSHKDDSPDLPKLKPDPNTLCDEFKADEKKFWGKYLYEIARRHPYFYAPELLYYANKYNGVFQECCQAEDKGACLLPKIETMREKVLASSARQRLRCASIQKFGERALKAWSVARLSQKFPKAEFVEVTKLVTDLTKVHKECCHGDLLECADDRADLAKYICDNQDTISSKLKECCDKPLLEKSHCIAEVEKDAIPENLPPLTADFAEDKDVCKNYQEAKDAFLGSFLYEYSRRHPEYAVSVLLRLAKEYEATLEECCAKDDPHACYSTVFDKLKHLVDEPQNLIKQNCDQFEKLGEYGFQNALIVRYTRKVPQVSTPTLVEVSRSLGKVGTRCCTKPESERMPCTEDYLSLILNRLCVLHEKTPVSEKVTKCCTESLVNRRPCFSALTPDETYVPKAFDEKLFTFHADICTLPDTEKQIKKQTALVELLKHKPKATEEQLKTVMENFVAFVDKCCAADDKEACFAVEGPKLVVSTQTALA
smiles,measurement,setting,value
"CC(C)n1c[n+](C(C)C)c2ccccc21 [Compound 3a, 1,3-Diisopropylbenzimidazolium hydrogen carbonate]",Maximum desorption temperature of NHC film from Au,[1],605 K
same,Solubility in THF and DCE,"[2]; THF, DCE",mild solubility
same,Stability of the solid,"[2]; ambient, in air",bench-stable
same,Solubility in ethanol and methanol,"[2]; ethanol, methanol",soluble
same,Solubility in water,[2]; water,highly soluble
same,"XPS spectra of NHC SAM on gold derived from the precursor, before vs after treatment",[3],remained unchanged
"COc1cc(C=CC(=O)O)ccc1O [ferulic acid, 4-hydroxy-3-methoxycinnamic acid]",Sensing of ferulic acid by BSA pre-immobilized NHC-CM5 surface,[4],can sense
CC(=O)Oc1ccc2c3c1O[C@H]1[C@@H](OC(C)=O)C=C[C@H]4[C@@H](C2)N(C)CC[C@@]341 [heroin],Detection of opioid on HSA surface of NHC-CM5 chip,HSA,successfully detected
same,Detectability at the lowest concentration,"HSA; lowest of 50, 100, 200, 400 μM",not detectable
CNC1(c2ccccc2Cl)CCCCC1=O (stereo not shown) [ketamine],Detection of opioid on HSA surface of NHC-CM5 chip,HSA,successfully detected

# Reference: US11008291B2, “Methods of forming carbene-functionalized composite materials” (Queen's University at Kingston, priority 2015, dated 2021)
